Like-named read-outs stand apart in the source and are kept apart here.
Key:
[1] = tested on: Akt phosphorylation induced by IGF-1R; experiment: Western blot analysis of Akt phosphorylation induced by IGF-1 in HT-29 cells; type: cell-based, Human; settings: for Levels of phosphorylated AKT in treated cells (pAKT/actin): HT-29 cells, IGF-1; for p-AKT relative to levels with 0.1 nM compound: Table B2 lower part; for Normalized phosphorylated AKT (relative to actin) levels relative to 0.1 nM compound treatment: Table B2 upper part; for pAKT relative to 0.1 nM compound: derivatives of Cpd. No. 8b
In short: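 HT-29 cells grown 24 h in DME/F12 with 10% FBS, serum-starved 24 h, then exposed 2 h to compound at 0.1, 1, 10 or 100; controls received DMSO or 10 ng/mL IGF-1. Lysate soluble fractions quantified by BCA before western blotting for phospho-Akt.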

IGF-1R = target: T1, IGF-1R (Homo sapiens, UniProt P08069); experiment: In vitro IGF-1R enzymatic assay (ADP-Glo kinase assay); type: biochemical; settings: activated IGF-1R, 30 nM
T1 construct: purchased Millipore 14-802
Description: (§1) IC50 values of the compounds of the invention against IGF-1R and IR were measured in vitro using an ADP-Glo kinase assay Kit (Promega). […] Kinase reactions in both assays were conducted at 30° C. for 20 min with increasing concentrations of compounds of the invention.
Additional compounds of the invention were screened against activated IGF-1R.

IR = target: T2, IR (Homo sapiens, UniProt P06213); experiment: In vitro IR enzymatic assay (ADP-Glo kinase assay); type: biochemical; settings: activated IR, 30 nM
T2 construct: purchased Millipore 14-803
Description: as §1
Additional compounds of the invention were screened against activated IR.

AXL = target: T3, AXL (Homo sapiens, UniProt P30530); experiment: Caliper kinase assay: AXL; settings: 0.01 μM
T3 sequence (P30530 26-894): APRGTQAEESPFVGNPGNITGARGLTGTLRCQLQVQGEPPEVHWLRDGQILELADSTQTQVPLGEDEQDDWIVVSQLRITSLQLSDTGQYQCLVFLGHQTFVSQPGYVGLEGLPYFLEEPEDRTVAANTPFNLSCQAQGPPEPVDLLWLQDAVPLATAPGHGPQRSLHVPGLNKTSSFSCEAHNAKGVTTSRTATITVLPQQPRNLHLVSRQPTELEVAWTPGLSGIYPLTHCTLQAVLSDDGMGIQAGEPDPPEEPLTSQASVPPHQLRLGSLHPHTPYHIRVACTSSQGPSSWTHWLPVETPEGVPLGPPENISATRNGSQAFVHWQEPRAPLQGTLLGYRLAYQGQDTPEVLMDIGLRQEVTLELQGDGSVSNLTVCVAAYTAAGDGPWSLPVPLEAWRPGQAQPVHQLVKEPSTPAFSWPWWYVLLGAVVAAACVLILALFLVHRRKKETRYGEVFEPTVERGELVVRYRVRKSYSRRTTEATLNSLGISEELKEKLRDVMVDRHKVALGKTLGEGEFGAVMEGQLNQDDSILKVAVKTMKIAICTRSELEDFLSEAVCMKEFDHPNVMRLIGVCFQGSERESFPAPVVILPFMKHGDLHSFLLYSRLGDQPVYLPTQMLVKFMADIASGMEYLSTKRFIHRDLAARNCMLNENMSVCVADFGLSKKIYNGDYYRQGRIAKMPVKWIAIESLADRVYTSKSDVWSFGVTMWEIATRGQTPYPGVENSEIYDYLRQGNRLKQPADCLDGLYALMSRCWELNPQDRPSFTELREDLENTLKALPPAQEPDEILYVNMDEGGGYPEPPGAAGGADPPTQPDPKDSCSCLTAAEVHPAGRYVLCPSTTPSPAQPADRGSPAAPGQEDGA
Description: (§6) The compound was tested at concentrations of 1.0×10^−8 and 1.0×10^−9 M in the RapidKinase192™ panel in duplicate. […] The screening was performed using the Caliper EZReader2, a 4-sipper LabChip, and ProfilerPro Kinase Selectivity Assay Kits 1 and 2. The assay measures the conversion of a fluorescent peptide substrate to a phosphorylated product. Briefly, the reaction mixture was introduced through a capillary sipper onto the microfluidic chip, where the substrate and product were electrophoretically separated and detected by laser-induced fluorescence. The time-dependent fluorescence signal indicates the extent of the reaction.
(§7) The kinases tested were AurA, AurB, AurC, AXL, FAK2, IGF1R, InsR, Mer, MET, Trk B and Trk C.
(§8) The assays were conducted using the Caliper LabChip 3000 and a 12-sipper LabChip as described above.

NTRK2(TRKB) = NTRK2(TRKB) (Homo sapiens, UniProt Q16620); experiment: Caliper kinase assay: NTRK2 (TRKB); settings: Trk B, 0.01 μM
Description: as §6, §7, §8

TRKC(NTRK3) = TRKC(NTRK3) (Homo sapiens, UniProt Q16288); experiment: Caliper kinase assay: TRKC (NTRK3); settings: Trk C, 0.01 μM
Description: as §6, §7, §8

PYK2 = PYK2 (Homo sapiens, UniProt Q14289); experiment: Caliper kinase assay: PYK2 (called FAK2); settings: FAK2, 0.01 μM
Description: as §6, §7, §8

MDA MB175 = experiment: Cell Titer-Glo cell viability: MDA MB175; type: cell-based; settings: MDA-MB-175, any concentration tested, 3 μM maximum
Description: (§2) Compound nos. […] This panel of cell lines includes an ER− breast carcinoma, primary breast ductal carcinoma, prostate adenocarcinoma, mammary adenocarcinoma, mammary ductal carcinoma, mammary ductal carcinoma, ovary adenocarcinoma, ER+ breast carcinoma, ER− HER2+ mammary ductal carcinoma and an ER+ mammary ductal carcinoma, respectively.
(§3) This assay quantitates the ATP present in order to determine the number of viable cells in culture. Briefly, the compounds were incubated with the cells for 72 h, followed by cell lysis. The resulting luminescent signal is proportional to the amount of ATP present and, therefore, directly proportional to the number of cells present in culture.
(§4) Compounds 2b, 5, 6b and 10a were tested along with derivatives in viability assays as described above by Caliper LifeSciences Systems (Hanover, Md.), in A549, HCT-15, HCT-116, MCF-7, MDA-MB-231, OVCAR3, T47D, COLO205, HT-29, BT-20, HCC1187, HL-60, MDA-MB-175, SW-620, and UACC812 cells.
(§5) The inhibitory effects of Compound 8a were tested in two cell lines.

UACC 812 = experiment: Cell Titer-Glo cell viability: UACC 812; type: cell-based; settings: UACC812, any concentration tested, 3 μM maximum
Description: as §2, §3, §4, §5

[2] = N1, read-out: % Inh @ 30 nM (N1)
[3] = N2, read-out: % Inh @ 30 nM (N2)
[4] = average, read-out: % Inh @ 30 nM Avg

T1 sequence (P08069 31-1367): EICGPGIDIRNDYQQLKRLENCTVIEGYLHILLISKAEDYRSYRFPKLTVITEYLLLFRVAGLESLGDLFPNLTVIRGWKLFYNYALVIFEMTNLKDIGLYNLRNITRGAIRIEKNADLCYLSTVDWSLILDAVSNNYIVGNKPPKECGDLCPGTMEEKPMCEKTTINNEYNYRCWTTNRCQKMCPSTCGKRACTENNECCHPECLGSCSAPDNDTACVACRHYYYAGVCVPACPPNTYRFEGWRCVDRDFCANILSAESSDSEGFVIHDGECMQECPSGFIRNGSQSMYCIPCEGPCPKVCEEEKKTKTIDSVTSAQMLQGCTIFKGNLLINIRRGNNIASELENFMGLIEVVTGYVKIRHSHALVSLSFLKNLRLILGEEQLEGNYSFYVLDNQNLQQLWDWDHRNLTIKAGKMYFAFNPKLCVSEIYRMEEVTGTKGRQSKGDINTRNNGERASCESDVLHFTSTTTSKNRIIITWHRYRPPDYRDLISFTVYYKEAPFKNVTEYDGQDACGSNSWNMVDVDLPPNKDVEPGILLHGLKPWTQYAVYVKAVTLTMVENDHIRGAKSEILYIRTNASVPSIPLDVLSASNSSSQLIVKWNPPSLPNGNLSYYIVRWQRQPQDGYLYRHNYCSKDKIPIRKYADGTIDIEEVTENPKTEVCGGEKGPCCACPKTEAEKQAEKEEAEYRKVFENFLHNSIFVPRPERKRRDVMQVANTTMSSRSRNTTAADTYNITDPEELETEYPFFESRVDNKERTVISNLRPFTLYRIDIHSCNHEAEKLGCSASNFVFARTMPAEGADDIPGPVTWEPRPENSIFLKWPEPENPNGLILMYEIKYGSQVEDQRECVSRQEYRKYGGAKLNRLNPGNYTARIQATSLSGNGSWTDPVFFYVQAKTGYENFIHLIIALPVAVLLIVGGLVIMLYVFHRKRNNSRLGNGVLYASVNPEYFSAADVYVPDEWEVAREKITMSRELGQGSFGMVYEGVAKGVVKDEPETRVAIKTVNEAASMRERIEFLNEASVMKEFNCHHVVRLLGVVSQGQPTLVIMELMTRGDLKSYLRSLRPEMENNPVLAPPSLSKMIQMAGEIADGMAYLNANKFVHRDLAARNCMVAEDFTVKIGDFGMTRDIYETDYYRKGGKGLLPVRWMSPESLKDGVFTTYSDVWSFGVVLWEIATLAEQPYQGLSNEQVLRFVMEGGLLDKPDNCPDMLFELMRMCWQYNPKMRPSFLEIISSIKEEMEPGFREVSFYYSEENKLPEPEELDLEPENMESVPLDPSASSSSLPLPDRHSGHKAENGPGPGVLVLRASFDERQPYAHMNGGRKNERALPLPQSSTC
T2 sequence (P06213 28-1382): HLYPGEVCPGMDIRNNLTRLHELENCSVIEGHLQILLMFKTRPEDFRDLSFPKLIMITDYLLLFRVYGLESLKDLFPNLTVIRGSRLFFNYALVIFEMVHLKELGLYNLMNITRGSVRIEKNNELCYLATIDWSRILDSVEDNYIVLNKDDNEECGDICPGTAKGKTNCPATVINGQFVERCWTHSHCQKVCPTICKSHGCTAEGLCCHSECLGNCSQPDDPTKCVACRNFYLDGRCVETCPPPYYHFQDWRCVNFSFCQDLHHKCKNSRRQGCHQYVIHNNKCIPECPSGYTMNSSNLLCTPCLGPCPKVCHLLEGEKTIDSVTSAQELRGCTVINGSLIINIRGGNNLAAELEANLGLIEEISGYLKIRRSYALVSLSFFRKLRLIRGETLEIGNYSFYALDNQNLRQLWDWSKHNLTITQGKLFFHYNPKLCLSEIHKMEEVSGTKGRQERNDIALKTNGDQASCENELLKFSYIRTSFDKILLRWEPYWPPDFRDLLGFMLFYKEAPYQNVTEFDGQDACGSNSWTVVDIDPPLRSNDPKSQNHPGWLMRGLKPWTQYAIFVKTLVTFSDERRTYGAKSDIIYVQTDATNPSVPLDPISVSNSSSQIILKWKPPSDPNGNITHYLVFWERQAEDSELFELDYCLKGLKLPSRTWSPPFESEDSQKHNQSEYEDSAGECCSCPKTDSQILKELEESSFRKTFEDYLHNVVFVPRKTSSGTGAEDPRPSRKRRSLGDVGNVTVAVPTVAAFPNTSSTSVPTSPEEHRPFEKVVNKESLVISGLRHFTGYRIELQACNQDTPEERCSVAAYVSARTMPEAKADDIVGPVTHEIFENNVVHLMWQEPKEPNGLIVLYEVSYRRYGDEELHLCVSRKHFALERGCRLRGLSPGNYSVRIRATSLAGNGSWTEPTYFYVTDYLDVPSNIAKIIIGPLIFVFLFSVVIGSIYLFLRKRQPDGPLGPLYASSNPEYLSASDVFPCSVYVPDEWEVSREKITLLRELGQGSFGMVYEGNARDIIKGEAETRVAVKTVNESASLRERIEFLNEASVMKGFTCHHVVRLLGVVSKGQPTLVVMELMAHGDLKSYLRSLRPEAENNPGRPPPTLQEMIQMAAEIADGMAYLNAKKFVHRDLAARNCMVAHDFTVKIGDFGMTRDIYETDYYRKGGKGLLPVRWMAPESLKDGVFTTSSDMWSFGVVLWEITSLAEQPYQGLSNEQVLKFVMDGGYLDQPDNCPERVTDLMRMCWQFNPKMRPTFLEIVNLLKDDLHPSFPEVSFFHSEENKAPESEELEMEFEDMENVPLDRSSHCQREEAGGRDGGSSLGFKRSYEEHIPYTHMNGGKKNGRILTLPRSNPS
Chain of NTRK2(TRKB) (Q16620 32-822): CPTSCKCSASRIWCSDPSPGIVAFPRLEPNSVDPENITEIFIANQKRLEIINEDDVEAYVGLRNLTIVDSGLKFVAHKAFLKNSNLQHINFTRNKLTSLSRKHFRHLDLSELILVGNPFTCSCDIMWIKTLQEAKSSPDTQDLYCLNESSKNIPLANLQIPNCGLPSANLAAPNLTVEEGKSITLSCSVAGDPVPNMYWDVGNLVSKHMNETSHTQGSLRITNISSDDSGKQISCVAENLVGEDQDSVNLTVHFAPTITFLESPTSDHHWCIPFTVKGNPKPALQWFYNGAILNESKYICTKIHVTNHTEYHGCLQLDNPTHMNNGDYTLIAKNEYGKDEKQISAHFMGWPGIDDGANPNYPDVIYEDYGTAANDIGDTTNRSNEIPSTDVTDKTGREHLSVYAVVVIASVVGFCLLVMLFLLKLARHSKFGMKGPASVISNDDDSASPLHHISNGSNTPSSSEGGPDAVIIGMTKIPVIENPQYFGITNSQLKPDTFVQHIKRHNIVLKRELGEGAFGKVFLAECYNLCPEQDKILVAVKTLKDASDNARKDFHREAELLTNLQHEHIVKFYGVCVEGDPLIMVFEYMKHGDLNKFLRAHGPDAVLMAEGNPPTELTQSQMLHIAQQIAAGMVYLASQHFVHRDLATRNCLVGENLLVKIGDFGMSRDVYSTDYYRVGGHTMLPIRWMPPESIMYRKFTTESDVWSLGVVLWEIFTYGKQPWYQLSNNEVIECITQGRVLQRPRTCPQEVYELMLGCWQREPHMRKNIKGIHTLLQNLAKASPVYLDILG
Chain of PYK2 (Q14289 whole entry): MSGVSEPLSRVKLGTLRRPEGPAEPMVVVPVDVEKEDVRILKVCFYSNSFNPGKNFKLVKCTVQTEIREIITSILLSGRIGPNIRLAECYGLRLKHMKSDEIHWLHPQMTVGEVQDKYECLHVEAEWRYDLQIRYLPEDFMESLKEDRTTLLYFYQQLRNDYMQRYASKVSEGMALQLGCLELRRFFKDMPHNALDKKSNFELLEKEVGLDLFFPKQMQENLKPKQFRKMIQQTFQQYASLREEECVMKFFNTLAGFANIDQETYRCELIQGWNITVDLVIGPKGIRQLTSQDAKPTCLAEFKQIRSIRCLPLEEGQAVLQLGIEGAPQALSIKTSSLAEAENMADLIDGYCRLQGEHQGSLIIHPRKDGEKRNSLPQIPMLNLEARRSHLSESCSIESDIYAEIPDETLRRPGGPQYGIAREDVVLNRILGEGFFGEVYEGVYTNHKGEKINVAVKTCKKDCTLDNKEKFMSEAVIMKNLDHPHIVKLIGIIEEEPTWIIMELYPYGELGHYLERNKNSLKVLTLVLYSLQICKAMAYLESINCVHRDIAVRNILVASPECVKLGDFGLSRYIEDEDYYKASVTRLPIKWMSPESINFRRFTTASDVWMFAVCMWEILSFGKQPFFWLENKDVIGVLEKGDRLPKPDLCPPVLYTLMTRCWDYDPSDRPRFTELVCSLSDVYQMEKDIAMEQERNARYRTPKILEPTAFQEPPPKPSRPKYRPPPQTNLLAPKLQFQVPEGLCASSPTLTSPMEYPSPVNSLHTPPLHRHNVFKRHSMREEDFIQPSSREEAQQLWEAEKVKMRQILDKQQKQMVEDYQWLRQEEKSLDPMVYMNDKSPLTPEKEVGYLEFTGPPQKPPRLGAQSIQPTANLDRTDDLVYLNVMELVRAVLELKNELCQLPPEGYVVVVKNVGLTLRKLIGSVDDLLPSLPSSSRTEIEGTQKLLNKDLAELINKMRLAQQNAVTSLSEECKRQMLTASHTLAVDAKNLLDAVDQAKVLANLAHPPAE

## O=C(Nc1cnccn1)C1CCCN1c1nc2c(c(Nc3cc(C4CC4)[nH]n3)n1)CCC2 (single isomer, unassigned) [Compound 6b, 1-(4-(3-cyclopropyl-1H-pyrazol-5-ylamino)-6,7-dihydro-5H-cyclopenta[d]pyrimidin-2-yl)-N-(pyrazin-2-yl)pyrrolidine-2-carboxamide]
[1]; 0.1 nM compound
  Levels of phosphorylated AKT in treated cells (pAKT/actin): 0.87
[1]; 0.1 nM
  p-AKT relative to levels with 0.1 nM compound: 1.0
  Normalized phosphorylated AKT (relative to actin) levels relative to 0.1 nM compound treatment: 1.0
  pAKT relative to 0.1 nM compound: 1.00
[1]; 1 nM compound
  Levels of phosphorylated AKT in treated cells (pAKT/actin): 0.18
[1]; 1 nM
  p-AKT relative to levels with 0.1 nM compound: 0.2
  Normalized phosphorylated AKT (relative to actin) levels relative to 0.1 nM compound treatment: 0.2
  pAKT relative to 0.1 nM compound: 0.39
[1]; 10 nM compound
  Levels of phosphorylated AKT in treated cells (pAKT/actin): 0.00
[1]; 10 nM
  p-AKT relative to levels with 0.1 nM compound: 0.0
  pAKT relative to 0.1 nM compound: 0.02
[1]; 100 nM compound
  Levels of phosphorylated AKT in treated cells (pAKT/actin): 0.00
[1]; 100 nM
  p-AKT relative to levels with 0.1 nM compound: 0.0
  Normalized phosphorylated AKT (relative to actin) levels relative to 0.1 nM compound treatment: 0.0
  pAKT relative to 0.1 nM compound: 0.01
IGF-1R; [2]
  inhibition at 0.03 µM: 93%
IGF-1R; [3]
  inhibition at 0.03 µM: 95%
IGF-1R; [4]
  inhibition at 0.03 µM: 94%
IR; [2]
  inhibition at 0.03 µM: 92%
IR; [3]
  inhibition at 0.03 µM: 91%
IR; [4]
  inhibition at 0.03 µM: 92%
AXL
  inhibition of kinase: strongly inhibited
NTRK2(TRKB)
  inhibition of kinase: strongly inhibited
TRKC(NTRK3)
  inhibition of kinase: strongly inhibited
PYK2
  inhibition of kinase: strongly inhibited

## CC(C)c1cc(Nc2nc(N3CCC[C@H]3C(=O)Nc3ccc(F)nc3)nc3c2CCC3)n[nH]1 (single isomer, unassigned) [Compound 8a]
[1]; 0.1 nM compound
  Levels of phosphorylated AKT in treated cells (pAKT/actin): 1.93
[1]; 0.1 nM
  p-AKT relative to levels with 0.1 nM compound: 1.0
  Normalized phosphorylated AKT (relative to actin) levels relative to 0.1 nM compound treatment: 1.0
[1]; 1 nM compound
  Levels of phosphorylated AKT in treated cells (pAKT/actin): 2.27
[1]; 1 nM
  p-AKT relative to levels with 0.1 nM compound: 1.2
  Normalized phosphorylated AKT (relative to actin) levels relative to 0.1 nM compound treatment: 1.2
[1]; 10 nM compound
  Levels of phosphorylated AKT in treated cells (pAKT/actin): 1.17
[1]; 10 nM
  p-AKT relative to levels with 0.1 nM compound: 0.6
  Normalized phosphorylated AKT (relative to actin) levels relative to 0.1 nM compound treatment: 0.6
[1]; 100 nM compound
  Levels of phosphorylated AKT in treated cells (pAKT/actin): 1.78
[1]; 100 nM
  p-AKT relative to levels with 0.1 nM compound: 0.9
  Normalized phosphorylated AKT (relative to actin) levels relative to 0.1 nM compound treatment: 0.9
IGF-1R; [4]
  inhibition at 0.03 µM: 0%
MDA MB175
  proliferation as compared to the untreated control: ≥ 68%
UACC 812
  proliferation as compared to the untreated control: ≥ 68%
